We go through 30 molecules from patent US20050282814A1, “Vasculostatic agents and methods of use thereof” (TargeGen, Inc., priority 2002, published 2005).

Structures can show the parent of a compound that is named as a salt.

Assay [1] concerns acute myocardial infarct. Description: Rat acute myocardial infarct model (60 min LAD occlusion, reperfusion). It counts as in vivo, Sprague-Dawley rats. To be noted: 1.0 mg/kg IV at 90 min post-reperfusion; 24 hr; vs vehicle. Here is the method: A rodent model of acute myocardial infarct, in which the proximal left anterior descending coronary artery (LAD) is occluded for 60 min followed by reperfusion, was used to determine whether test agents reduced infarct size at 24 hours.
Myocardial infarcts were created in Sprague-Dawley rats (200-300 g body weight) by a 60 min occlusion of the LAD followed by LAD reperfusion. At 90 min post-reperfusion, either vehicle alone or test agents were injected IV. At 24 hr post-treatment, the ischemic zone (area at-risk, AAR) was delineated by re-ligation of the LAD followed by IV injection of alkali blue dye, after which hearts were sectioned along the short axis and stained using triphenyltetrazolium chloride to delineate viable from infarcted myocardium. Photographic images were then analyzed using morphometric software to calculate infarct area as a percent of the at-risk area.
The following studies were performed as described above, except that the timing of 3-[2,4-diamino-6-(3-hydroxyphenyl)pteridin-7-yl] phenol dihydrochloride salt administration (at 0.1 mg/kg) was varied. In one group, 3-[2,4-diamino-6-(3-hydroxyphenyl)pteridin-7-yl] phenol dihydrochloride salt was administered at both 60 and 240 min post-occlusion.
In a porcine MI model (90 min of LAD occlusion followed by complete reperfusion), a single 0.3 mg/kg IV bolus delivered 30 min post-reperfusion reduced infarct size by […] vs. controls (40% vs. 56%, N=12-13, P=0.03).

Assay [2] has as its target T1, recombinant human c-Src (Homo sapiens, UniProt P12931).
T1 construct: purchased Panvera, Madison Wis
The experiment in a line: c-Src kinase inhibition, KinaseGlo residual ATP. The assay is classed as biochemical. To be noted: ATP 3 μM, 90 minutes at room temperature. The text has this:
(§1) The ability of compounds to inhibit the activity of two Src-family kinases (c-Src and Yes) was directly tested.
(In Kinase-Glo more light means more ATP remaining.)

The target in assay [3] is T2, recombinant human Yes (Homo sapiens, UniProt P07947).
T2 construct: purchased Panvera, Madison Wis
T2 sequence (P07947 whole entry): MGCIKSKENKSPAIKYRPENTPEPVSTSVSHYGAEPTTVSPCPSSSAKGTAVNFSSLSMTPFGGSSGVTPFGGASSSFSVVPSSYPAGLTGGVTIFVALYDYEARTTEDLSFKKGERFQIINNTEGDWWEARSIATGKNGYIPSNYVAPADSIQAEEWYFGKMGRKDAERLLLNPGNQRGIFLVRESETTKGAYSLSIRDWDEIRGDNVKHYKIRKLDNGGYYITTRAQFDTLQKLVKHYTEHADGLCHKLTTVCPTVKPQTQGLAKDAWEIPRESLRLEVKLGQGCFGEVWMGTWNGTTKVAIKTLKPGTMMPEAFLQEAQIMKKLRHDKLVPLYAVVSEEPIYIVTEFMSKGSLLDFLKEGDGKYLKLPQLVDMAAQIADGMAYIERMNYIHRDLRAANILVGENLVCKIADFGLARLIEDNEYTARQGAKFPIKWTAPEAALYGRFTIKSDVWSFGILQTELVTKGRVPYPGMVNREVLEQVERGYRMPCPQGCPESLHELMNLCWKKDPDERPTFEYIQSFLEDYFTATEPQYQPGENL
Description: Yes kinase inhibition, KinaseGlo residual ATP. It counts as biochemical. As to conditions: ATP 3 μM, 90 minutes at room temperature.
Text: as §1

The target in assay [4] is T3, human p120γ subunit of PI3K (Homo sapiens, UniProt P48736).
T3 construct: Upstate Group, Charlottesville, Va; (ran the assay under contract)
T3 sequence (P48736 whole entry): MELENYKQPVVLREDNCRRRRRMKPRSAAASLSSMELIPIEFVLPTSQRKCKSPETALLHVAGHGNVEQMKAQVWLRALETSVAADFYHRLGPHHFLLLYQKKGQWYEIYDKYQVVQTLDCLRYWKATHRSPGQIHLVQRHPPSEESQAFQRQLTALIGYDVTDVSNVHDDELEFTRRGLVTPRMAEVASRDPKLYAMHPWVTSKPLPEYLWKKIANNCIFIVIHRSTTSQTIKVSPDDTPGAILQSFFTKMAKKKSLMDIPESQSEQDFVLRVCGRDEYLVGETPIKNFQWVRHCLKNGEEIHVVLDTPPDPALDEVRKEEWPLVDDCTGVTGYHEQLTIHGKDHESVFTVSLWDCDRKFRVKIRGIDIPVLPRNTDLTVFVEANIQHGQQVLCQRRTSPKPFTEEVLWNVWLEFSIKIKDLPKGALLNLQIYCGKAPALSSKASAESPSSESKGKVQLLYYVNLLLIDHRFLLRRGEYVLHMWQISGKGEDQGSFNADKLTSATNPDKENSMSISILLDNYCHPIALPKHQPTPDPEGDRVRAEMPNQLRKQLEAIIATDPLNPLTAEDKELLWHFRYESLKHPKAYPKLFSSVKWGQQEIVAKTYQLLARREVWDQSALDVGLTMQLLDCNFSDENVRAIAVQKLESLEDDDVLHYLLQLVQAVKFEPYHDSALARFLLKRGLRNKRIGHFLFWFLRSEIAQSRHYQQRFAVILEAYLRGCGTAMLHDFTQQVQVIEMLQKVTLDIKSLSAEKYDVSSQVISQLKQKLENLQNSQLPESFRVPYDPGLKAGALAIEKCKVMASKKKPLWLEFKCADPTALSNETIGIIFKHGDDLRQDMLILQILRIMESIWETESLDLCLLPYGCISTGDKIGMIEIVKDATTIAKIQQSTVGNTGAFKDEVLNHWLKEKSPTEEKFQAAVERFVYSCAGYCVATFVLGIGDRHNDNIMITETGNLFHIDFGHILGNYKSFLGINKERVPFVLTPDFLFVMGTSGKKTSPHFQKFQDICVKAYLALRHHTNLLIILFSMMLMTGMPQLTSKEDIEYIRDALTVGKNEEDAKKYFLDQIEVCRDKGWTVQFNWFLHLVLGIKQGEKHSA
Description: PI3K p120γ enzymatic activity at two concentrations (Upstate Group). It counts as biochemical. As to conditions: 100% = no inhibition, 0% = complete inhibition; for remaining activity at 0.5 µM: read-out: Percent Control Value at 0.5 μM; for remaining activity at 5 µM: read-out: Percent Control Value at 5 μM. As for the experimental part: The ability of compounds to inhibit the activity of PI3K kinase was determined using biochemical assays. In a first assay, compounds were tested at two concentrations (0.5 and 5 μM) for their ability to inhibit enzymatic activity of the human p120γ subunit of PI3K (the assay being performed under contract by Upstate Group, Charlottesville, Va.).

Assay [5] addresses recombinant phosphatidylinositol 3-kinase-p120γ (PI3K) (Homo sapiens, UniProt P48736). The experiment in a line: biochemical.
Assay [6] relates to VEGF-induced edema. Description: Miles assay, VEGF-induced edema. The assay is classed as in vivo, Sprague-Dawley rats. To be noted: VEGF 200 ng/site, 45 min, vehicle 12. As for the experimental part: A rodent model of vascular edema, the Miles assay, was used to screen compounds for their ability to inhibit VEGF-induced edema.
Sprague-Dawley rats were first injected IV with vehicle alone or test agent, followed by IV injection of Evans blue dye, followed by intradermal injections of saline and VEGF (200 ng/injection site) along both shaved flanks. After 45 min, intradermal injection sites were photographed and then scored by a blinded observer for extravasation of Evans blue dye into the dermis (dermal bluing) according to a 4 point scoring system (3=maximal bluing, ≧75% of response in vehicle-treated animals; 2=medium bluing, >25% but <75% of vehicle-treated animals; 1=minimal bluing, ≦25% of vehicle-treated animals; 0=bluing equivalent to saline injection sites on same animal). Individual scores for 4 injection sites (from 2 separate animals) were summed and are shown as a scale of 0-12, with a lower score indicating the greater anti-edema activity; note that all vehicle-treated groups score a value of 12, based on the scoring system outlined above.

For assay [7], the system named is cerebral stroke. The experiment in a line: Cerebral stroke model, permanent middle cerebral artery occlusion. The assay is classed as in vivo, mice. To be noted: 1 mg/kg BW IV 60 min after ligation, 24 hours; for % Infarct reduction: vs vehicle. Here is the method:
A rodent model of cerebral stroke, in which the middle cerebral artery is permanently occluded, was used to determine whether test agents reduced infarct size at 24 hours.
Cerebral strokes were created in mice by permanent ligation of the middle cerebral artery using a cauterizing tool, followed 60 min later by IV injection of either vehicle alone (50% PEG400 in water) or test agents (at 1 mg/kg BW). Twenty four hours later, brains were sectioned and stained using triphenyltetrazolium chloride to delineate viable from infarcted tissue. Photographic images were then analyzed using morphometric software to calculate infarct area.

What is called IC50 is the concentration that gives 50% inhibition.

Sequence of recombinant phosphatidylinositol 3-kinase-p120γ (PI3K) (P48736 whole entry): as above
T1 sequence (P12931 whole entry): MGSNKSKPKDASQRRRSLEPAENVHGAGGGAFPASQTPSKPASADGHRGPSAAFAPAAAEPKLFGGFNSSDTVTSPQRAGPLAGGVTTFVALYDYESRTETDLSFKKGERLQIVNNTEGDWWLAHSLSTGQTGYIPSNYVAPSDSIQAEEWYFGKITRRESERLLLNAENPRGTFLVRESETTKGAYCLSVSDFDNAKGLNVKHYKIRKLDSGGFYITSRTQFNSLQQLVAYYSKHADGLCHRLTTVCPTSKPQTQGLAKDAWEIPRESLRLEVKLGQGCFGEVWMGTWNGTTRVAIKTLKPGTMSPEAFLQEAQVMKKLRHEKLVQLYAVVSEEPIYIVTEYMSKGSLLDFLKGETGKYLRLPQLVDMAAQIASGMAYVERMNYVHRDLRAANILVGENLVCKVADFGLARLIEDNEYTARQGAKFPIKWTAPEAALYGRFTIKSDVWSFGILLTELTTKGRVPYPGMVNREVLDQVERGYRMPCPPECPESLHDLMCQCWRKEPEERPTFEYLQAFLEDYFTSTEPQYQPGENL

Consider `Cl.Cl.Nc1nc(N)c2nc(-c3cccc(O)c3)c(-c3cccc(O)c3)nc2n1`, for which the “% Infarct reduction” value in assay [1] is given as “Not significant”.

Regarding `Oc1ccc(CNc2ncnc3ncc(-c4ccccc4)nc23)cc1O`, in assay [2], the IC50 was found to be 420 nM. As for `Nc1cncc2nc(-c3ccc(O)c(O)c3)c(-c3ccc(O)c(O)c3)nc12` [2,3-Bis(3,4-dihydroxyphenyl)-pyrido[3,4-b]pyrazin-8-ylamine hydrochloride salt], the IC50 in assay [3] was 1000 nM; in assay [2] it was 1600 nM. For `Nc1cncc2nc(-c3cccc(O)c3)c(-c3cccc(O)c3)nc12` [2,3-Bis(3-hydroxyphenyl)-pyrido[3,4-b]pyrazin-8-ylamine hydrochloride salt], in assay [4], the remaining activity at 0.5 µM worked out at 101% and the remaining activity at 5 µM is 90%. For `Nc1cncc2nc(-c3ccc(O)cc3)c(-c3ccc(O)cc3)nc12` [2,3-Bis(4-hydroxyphenyl)-pyrido[3,4-b]pyrazin-8-ylamine] the same measures were 101% and 94%.

For the molecule `Nc1nc(O)c2nc(-c3cccc(O)c3)c(-c3cccc(O)c3)nc2n1` [2-Amino-6,7-bis-(3-hydroxy-phenyl)-pteridin-4-ol], in assay [4], the remaining activity at 0.5 µM worked out at 102% and the remaining activity at 5 µM was 99%. Further, the IC50 in assay [5] was 48000 nM. Turning to `O=C(Nc1ccccc1-c1cc2ccccc2[nH]1)c1ccc(O)c(O)c1` [3,4-Dihydroxy-N-(2-(1H-indol-2-yl)-phenyl)-benzamide], the IC50 in assay [3] worked out at 303 nM; in assay [2], 337 nM. Consider `Nc1nnc2cc(-c3cccc(O)c3)ccc2n1` [3-(3-Amino-benzo[1,2,4]triazin-7-yl)-phenol], for which the IC50 in assay [3] stood at 6800 nM; in assay [2] it was 12000 nM. Take `O=C(Nc1ccccc1-c1cc2ccccc2[nH]1)c1cccnc1C(=O)O` [3-[2-(1H-Indol-2-yl)-phenyicarbamoyl]-pyridine-2-carboxylic acid]: in assay [6] (0.5 mg/kg IV), the “Score (scale of 0-12)” value is recorded as 5. Turning to `Oc1ccc(CCNc2ncnc3ncc(-c4ccccc4)nc23)cc1O` [4-[2-(6-Phenyl-pteridin-4-ylamino)-ethyl]benzene-1,2-diol], the 50% inhibitory concentration (IC50) in assay [2] was 317 nM. Take `Cl.Nc1ncnc2nc(-c3ccc(O)c(O)c3)c(-c3ccc(O)c(O)c3)nc12` [4-[4-amino-6-(3,4-dihydroxyphenyl)pteridin-7-yl]benzene-1,2-diol hydrochloride salt]: the “Score (scale of 0-12)” value stood at 6 in assay [6] (0.01 mg/kg IV), 3 in assay [6] (0.1 mg/kg IV) and 5 in assay [6] (1 mg/kg IV). Also, the IC50 in assay [2] came out at 1300 nM.

`Nc1ncnc2nc(-c3ccc(O)c(O)c3)c(-c3ccc(O)c(O)c3)nc12` [4-[4-amino-6-(3,4-dihydroxyphenyl)pteridin-7-yl]benzene-1,2-diol methanesulfonate salt]: in assay [2], the IC50 was determined as 800 nM. As for `Nc1ncnc2nc(-c3ccc(O)c(O)c3)c(-c3ccc(O)c(O)c3)nc12` [4-[4-amino-6-(3,4-dihydroxyphenyl)pteridin-7-yl]benzene-1,2-diol], the IC50 in assay [5] turned out to be 968 nM. For the molecule `Nc1ncnc2nc(-c3cccc(O)c3)c(-c3cccc(O)c3)nc12` [6,7-Bis(3-hydroxyphenyl)-pteridine-4-ylamine hydrobromide salt], the IC50 in assay [2] is 8800 nM. Consider `Nc1nc(N)c2nc(-c3ccc(O)cc3)c(-c3ccc(O)cc3)nc2n1` [6,7-Bis(4-hydroxyphenyl)-pteridine-2,4-diamine], for which, in assay [4], the remaining activity at 0.5 µM worked out at 94% and the remaining activity at 5 µM turned out to be 46%. `Nc1ncnc2nc(-c3ccccn3)c(-c3ccccn3)nc12` [6,7-Di-pyridin-2-yl-pteridin-4-ylamine]: in assay [7], the “% Infarct reduction” value is on record as “Not significant”.

In the case of `Nc1nc(N)c2nc(-c3ccc(O)c(O)c3)c(-c3ccc(O)c(O)c3)nc2n1` [6,7-bis(3,4-dihydroxyphenyl)-pteridine-2,4-diamine dihydrochloride salt], the IC50 in assay [3] turned out to be 1100 nM; in assay [2], 2600 nM. For the molecule `Nc1nc(N)c2nc(-c3ccc(O)c(O)c3)c(-c3ccc(O)c(O)c3)nc2n1` [6,7-bis(3,4-dihydroxyphenyl)-pteridine-2,4-diamine], in assay [4], the remaining activity at 0.5 µM was found to be 66% and the remaining activity at 5 µM is 12%. The IC50 in assay [5] amounted to 273 nM. Take `Oc1nc(O)c2nc(-c3ccc(O)c(O)c3)c(-c3ccc(O)c(O)c3)nc2n1` [6,7-bis(3,4-dihydroxyphenyl)pteridine-2,4-diol]: the IC50 in assay [3] came to 900 nM; in assay [2] it was 1800 nM.

Regarding `Nc1ncnc2nc(-c3cccc(O)c3)c(-c3cccc(O)c3)nc12` [6,7-bis(3-hydroxyphenyl)-pteridin-4-ylamine hydrochloride salt], the IC50 in assay [3] came out at 6300 nM; in assay [2], 10000 nM. For `Nc1ncc2nc(-c3cccc(O)c3)c(-c3cccc(O)c3)nc2n1` [6,7-bis(3-hydroxyphenyl)-pteridine-2-amine] the same measures were 3800 nM and 27600 nM.

In the case of `Nc1ncnc2nc(-c3ccc(O)cc3)c(-c3ccc(O)cc3)nc12` [6,7-bis(4-hydroxyphenyl)-pteridin-4-ylamine], in assay [4], the remaining activity at 0.5 µM stood at 102% and the remaining activity at 5 µM worked out at 85%. Take `Nc1nc(N)c2nc(CNCc3ccc4ccccc4c3)cnc2n1` [6-{[(Naphthalen-2-ylmethyl)-amino]-methyl-pteridine-2,4-diamine]: the “Score (scale of 0-12)” value in assay [6] (0.1 mg/kg IV) is given as 4.

Turning to `Nc1nnc2cc(-c3ccccc3C(F)(F)F)ccc2n1` [7-(2-Trifluoromethyl-phenyl)-benzo[1,2,4]triazin-3-ylamine], the half-inhibitory concentration (IC50) in assay [3] was found to be 7000 nM; in assay [2] it was 9200 nM. Taken in the same sequence, the figures for `Nc1nnc2cc(-c3cccc4ccccc34)ccc2n1` [7-Naphthalen-1-yl-benzo[1,2,4]triazin-3-ylamine] were 9300 nM and 900 nM. As for `Cc1ccc(-c2nn(C(C)(C)C)c3ncnc(N)c23)cc1` [PP1, reference compound], in assay [7], the “Infarct area in mm^3 (mean ± SEM)” value amounted to 35.4 ± 6.4 mm^3 and the “% Infarct reduction” value is “Not significant”. As to `CN(C)S(=O)(=O)c1ccc2c(c1)/C(=C/c1cc3c([nH]1)CCCC3)C(=O)N2` [SU6656, reference compound], the “% Infarct reduction” value in assay [7] is recorded as “Not significant”.

Take `Cc1cccc(C)c1-c1cc(C)c2nc(Nc3ccccc3)nnc2c1` [[7-(2,6-Dimethyl-phenyl)-5-methyl-benzo[1,2,4]triazin-3-yl]-phenyl-amine]: in assay [2], the IC50 is 294 nM. In the case of `Nc1nc(N)c2nc(-c3ccccc3)c(-c3ccccc3)nc2n1` [compound B, 6,7-diphenyl-pteridine-2,4-diamine], in assay [4], the remaining activity at 0.5 µM stood at 101% and the remaining activity at 5 µM was 81%. For the molecule `Nc1ccc2nc(-c3ccc(O)c(O)c3)c(-c3ccc(O)c(O)c3)nc2n1` [compound C, 2,3-Bis(3,4-dihydroxyphenyl)-pyrido[2,3-b]pyrazin-6-ylamine dihydrochloride salt], the IC50 was determined as 756 nM in assay [3] and 1300 nM in assay [2].
